Laboratory results reported in patent publication US10385019B2, “Inhibitors of EGFR and methods of use thereof” (Dana-Farber Cancer Institute, Inc., priority 2015, dated 2019).

Biological target: EGFR T790M/L858R Ba/F3 cell line (Homo sapiens, UniProt P00533, T790M/L858R, cells depend on it)
Assay: Ba/F3 cell proliferation model
Type: cell-based, murine
Conditions: combined with cetuximab (% cetuximab, 1.0 μM drug concentration with 1.0 μg/mL cetuximab)
Description: The selectivity between wild-type EGFR and EGFR containing one or more mutations as described herein can also be measured using cellular proliferation assays where cell proliferation is dependent on kinase activity. For example, murine Ba/F3 cells transfected with a suitable version of wild-type EGFR (such as VIII; containing a WT EGFR kinase domain), or Ba/F3 cells transfected with L858R/T790M, Del/T790M/L718Q, L858R/T790M/L718Q, L858R/T790M/C797S, Del/T790M/C797S, L858R/T790M/I941R, or Exon 19 deletion/T790M can be used.
Cell lines are plated in media. The compounds of the present disclosure are then serially diluted and transferred to the cells. Cell viability is measured via a luminescent readout. Data is analyzed by non-linear regression curve-fitting. […]
The EGFR mutant L858R, Del E746_A750, L858R/T790M, DelE746_A750/T790M, L858R/T790M/C797S and Del/T790M/C797S Ba/F3 cells have been previously described (Zhou, W., Ercan, D., Chen, L., Yun, C. H., Li, D., Capelletti, M., Cortot, A. B., Chirieac, L., Iacob, R. E., Padera, R., et al. “Novel mutant-selective EGFR kinase inhibitors against EGFR T790M,” Nature 462, (2009), 1070-1074). All cell lines were maintained in RPMI 1640 (Cellgro; Mediatech Inc., Herndon, Calif.) supplemented with 10% FBS 100 units/mL penicillin, 100 units/mL streptomycin, and 2 mM glutamine. L858R cells were maintained in ACL-4 media (Invitrogen, Carlsbad, Calif.) supplemented with 5% FBS, 100 units/mL penicillin, 100 units/mL streptomycin, and 2 mM glutamine. The EGFR I941R mutation was introduced via site directed mutagenesis using the Quick Change Site-Directed Mutagenesis kit (Stratagene; La Jolla, Calif.) according to the manufacturer's instructions. All constructs were confirmed by DNA sequencing. The constructs were shuttled into the retroviral vector JP 1540 using the BD Creator™ System (BD Biosciences). Ba/F3 cells were infected with retrovirus and according to standard protocols, as described previously (Zhou et al, Nature 2009). Stable clones were obtained by selection in puromycin (2 μg/ml).
Growth and inhibition of growth was assessed by MTS assay and was performed according to previously established methods (Zhou et al., Nature 2009). The MTS assay is a colorimetric method for determining the number of viable cells that is based on the bioreduction of MTS by cells to a formazan product that is soluble in cell culture medium and can be detected spectrophotometrically. Ba/F3 cells of different EGFR genotypes were exposed to treatment for 72 hours and the number of cells used per experiment determined empirically and has been previously established (Zhou et al., Nature 2009). All experimental points were set up in six wells and all experiments were repeated at least three times. […] The curves were fitted using a non-linear regression model with a sigmoidal dose response.
Inhibition data of an EGFR T790M/L858R Ba/F3 cell line.

Chain of EGFR T790M/L858R Ba/F3 cell line (P00533 whole entry T790M/L858R): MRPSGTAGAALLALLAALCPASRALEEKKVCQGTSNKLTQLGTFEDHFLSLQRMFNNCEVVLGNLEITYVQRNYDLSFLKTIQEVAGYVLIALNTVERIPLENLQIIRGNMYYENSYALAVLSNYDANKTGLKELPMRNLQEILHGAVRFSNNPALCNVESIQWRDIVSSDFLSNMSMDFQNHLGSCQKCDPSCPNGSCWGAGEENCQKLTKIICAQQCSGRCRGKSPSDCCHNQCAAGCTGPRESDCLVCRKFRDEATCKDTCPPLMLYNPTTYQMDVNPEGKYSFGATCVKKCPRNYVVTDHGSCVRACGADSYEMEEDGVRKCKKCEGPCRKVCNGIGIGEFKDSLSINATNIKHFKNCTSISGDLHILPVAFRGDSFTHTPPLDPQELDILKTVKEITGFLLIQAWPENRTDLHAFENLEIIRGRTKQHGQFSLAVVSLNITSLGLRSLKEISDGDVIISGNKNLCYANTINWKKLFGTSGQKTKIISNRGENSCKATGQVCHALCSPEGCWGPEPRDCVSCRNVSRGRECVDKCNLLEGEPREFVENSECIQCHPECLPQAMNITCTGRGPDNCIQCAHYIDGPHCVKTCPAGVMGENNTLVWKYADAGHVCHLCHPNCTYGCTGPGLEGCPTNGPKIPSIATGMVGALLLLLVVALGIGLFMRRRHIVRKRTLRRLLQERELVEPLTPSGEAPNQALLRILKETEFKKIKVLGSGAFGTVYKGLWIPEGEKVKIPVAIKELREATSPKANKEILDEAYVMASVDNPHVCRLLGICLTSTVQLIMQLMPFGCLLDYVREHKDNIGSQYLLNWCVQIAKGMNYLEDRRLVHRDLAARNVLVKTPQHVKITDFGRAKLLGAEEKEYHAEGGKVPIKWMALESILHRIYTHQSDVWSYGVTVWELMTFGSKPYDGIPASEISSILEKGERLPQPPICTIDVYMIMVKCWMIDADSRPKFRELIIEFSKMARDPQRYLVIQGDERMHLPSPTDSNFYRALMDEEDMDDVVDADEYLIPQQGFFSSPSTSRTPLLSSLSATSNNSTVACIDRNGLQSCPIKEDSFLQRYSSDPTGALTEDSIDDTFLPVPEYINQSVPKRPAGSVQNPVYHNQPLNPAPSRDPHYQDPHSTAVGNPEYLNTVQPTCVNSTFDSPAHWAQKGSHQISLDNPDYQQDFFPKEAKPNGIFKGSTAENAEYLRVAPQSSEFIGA

Compound	Activity (% inhibition)
O=C(NCCN1CCOCC1)c1ccc(-c2ccc3c(c2)C(=O)N([C@@H](C(=O)Nc2nccs2)c2ccccc2)C3)cc1 [Compound I-83, (R)-N-(2-morpholinoethyl)-4-(3-oxo-2-(2-oxo-1-phenyl-2-(thiazol-2-ylamino)ethyl)isoindolin-5-yl)benzamide]	D (a % inhibition of between about 0% to about 25%)
O=C(Nc1ccccn1)[C@@H](c1ccccc1)N1Cc2ccccc2C1=O [Compound I-31, (R)-2-(1-oxoisoindolin-2-yl)-2-phenyl-N-(pyridin-2-yl) acetamide]	A (a % inhibition of about 75%)
CN(C)CCNC(=O)c1cccc(-c2ccc3c(c2)C(=O)N([C@@H](C(=O)Nc2nccs2)c2ccccc2)C3)c1 [Compound I-88, (R)-N-(2-(dimethylamino)ethyl)-3-(3-oxo-2-(2-oxo-1-phenyl-2-(thiazol-2-ylamino)ethyl)isoindolin-5-yl)benzamide]	C (a % inhibition of between about 25% to about 50%)
Nc1cccc([C@H](C(=O)Nc2nccs2)N2Cc3ccccc3C2=O)c1 [Compound I-38, (R)-2-(3-aminophenyl)-2-(1-oxoisoindolin-2-yl)-N-(thiazol-2-yl)acetamide]	A (a % inhibition of about 75%)
O=C(Nc1nccs1)[C@H](c1cccc([N+](=O)[O-])c1)N1Cc2ccccc2C1=O [Compound I-12, (S)-2-(3-nitrophenyl)-2-(1-oxoisoindolin-2-yl)-N-(thiazol-2-yl)acetamide]	A (a % inhibition of about 75%)
C[C@H](C(=O)Nc1nccs1)N1Cc2ccc(-c3ccc(N4CCNCC4)cc3)cc2C1=O [Compound I-118, (R)-2-(1-oxo-6-(4-(piperazin-1-yl)phenyl)isoindolin-2-yl)-N-(thiazol-2-yl)propanamide]	A (a % inhibition of about 75%)
O=C(NCCCN1CCOCC1)c1cccc(-c2ccc3c(c2)C(=O)N([C@@H](C(=O)Nc2nccs2)c2ccccc2)C3)c1 [Compound I-91, (R)-N-(3-morpholinopropyl)-3-(3-oxo-2-(2-oxo-1-phenyl-2-(thiazol-2-ylamino)ethyl)isoindolin-5-yl)benzamide]	D (a % inhibition of between about 0% to about 25%)
CN1CCN(C(=O)c2csc(NC(=O)[C@@H](c3ccccc3)N3Cc4ccccc4C3=O)n2)CC1 [Compound I-25, (R)-N-(4-(4-methylpiperazine-1-carbonyl)thiazol-2-yl)-2-(1-oxoisoindolin-2-yl)-2-phenylacetamide]	A (a % inhibition of about 75%)
O=C(Nc1nccs1)[C@H](c1ccccc1)N1Cc2ccccc2C1=O [Compound I-21, (S)-2-(1-oxoisoindolin-2-yl)-2-phenyl-N-(thiazol-2-yl) acetamide]	B (a % inhibition of between about 50% to about 75%)
O=C(Nc1cccnc1)[C@@H](c1ccccc1)N1Cc2ccccc2C1=O [Compound I-7, (R)-2-(1-oxoisoindolin-2-yl)-2-phenyl-N-(pyridin-3-yl) acetamide]	A (a % inhibition of about 75%)
O=C(Nc1cc(F)ccc1F)[C@@H](c1ccccc1)N1Cc2ccccc2C1=O [Compound I-53, (R)-N-(2,5-difluorophenyl)-2-(1-oxoisoindolin-2-yl)-2-phenylacetamide]	A (a % inhibition of about 75%)
CN(C)CCCCNC(=O)c1csc(NC(=O)[C@@H](c2ccccc2)N2Cc3ccccc3C2=O)n1 [Compound I-15, (R)-N-(4-(dimethylamino)butyl)-2-(2-(1-oxoisoindolin-2-yl)-2-phenylacetamido)thiazole-4-carboxamide]	A (a % inhibition of about 75%)
Cc1csc(NC(=O)[C@@H](c2ccccc2)N2Cc3ccccc3C2=O)n1 [Compound I-5, (R)-N-(4-methylthiazol-2-yl)-2-(1-oxoisoindolin-2-yl)-2-phenylacetamide]	A (a % inhibition of about 75%)
